Columns and labels:
Type in all cases: cell-based, mouse
cleaved caspase 3 = test: Caspase 3 cleavage by immunoblot; conditions: 48 hr; any pH condition for TCAP-1
Procedure: Detection of caspase 3 cleavage was determined at 48 hrs. The samples at each pH and control (see above) were lysed using total protein isolation lysis buffer (described above). An aliquot of 25 μl of each sample was combined with 25 μl of 2×20% sodium dodecyl sulphate (SDS) sample buffer and loaded onto a 4-10% HCL-Tris pre cast polyacrylamide gel (BioRad, Mississauga). The gel was run at 200 v for 35 min and proteins were electrotransfered to a Hybond-C nitrocellulose membrane (Amersham, Baie d'Urfé) for 75 min at 100 v. After transfer, the membrane was washed with 10 ml of PBS with 0.05% Tween 20 (PBST) for 5 min at room temperature (RT) and the membrane was incubated in 10 ml of PBST-milk for one hour at RT followed by 3 times for 5 min washes with 10 ml of PBST. The membrane was then incubated with cleaved caspase 3 primary antibody (Cell Signaling Technology, Beverly) at a titre of 1:500 in 6 ml of PBST-milk with gentle agitation overnight at 4° C. The membranes were washed 3 times for 5 min with 10 ml of PBST followed by membrane incubation with anti-rabbit horseradish peroxidase (HRP)-conjugated secondary antibody (Amersham, Baie d'Urfé) at 1:3000 in 6 ml of PBST-milk with gentle agitation for 1 hr at RT. […]

caspase 3 = test: Caspase 3 colorimetric assay; conditions: pH 7.4; apoptotic control
Procedure: (§1) Caspase 8 and 3 colorimetric assays were performed on the N38 cells at all pH conditions. The assay was based on the detection of the chromophore pNA after cleavage from the labeled substrate IETD-pNA and DEVD-pNA for caspase 8 and 3, respectively. Comparison of the pNA absorbance from the suspected apoptotic sample was compared to the uninduced neutral pH sample. Caspase 8 and 3 were analysed using the Caspase-3 Colorimetric Activity Assay (Chemicon, Temecula USA) and Caspase-8 Colorimetric Activity Assay (Chemicon, Temecula USA). The cells from each pH treatment described previously at 24 and 48 hrs were removed using a cell scraper and centrifuged at 1500 rpm for 10 minutes. The cells were resuspended in 350 μl of chilled cell lysis buffer containing 500 μl PBS, 5 μl 1% Triton ×100 (Sigma, St. Louis), 25 μl proteinase inhibitor cocktail set III (VWR, Mississauga), 0.5 μM dithiothreitol (DTT) (Sigma, St. Louis) and 2.5 μl phenylmethylsulphonylfluoride (PMSF) diluted in 1 mL of methanol (EM Science, Gibbstown), then incubated on ice for 10 min and centrifuged for 5 minutes at 10,000 rpm. The supernatant, consisting of cytosolic extracts, was transferred to a new tube and a bicinchoninic acid (BCA) protein assay (Pierce, Rockford) was conducted to determine total protein concentration. The absorbance of each sample was measured on a SPECTRAmax Microplate spectrophotometer at 405 nm after an incubation period of 2 hours at 37° C. Changes in caspase 3 activity were determined by comparing the absorbance reading from the induced sample with the level of the uninduced control. Background readings from the buffer were subtracted from the reading of both the induced (pH 6.8, 8.0, 8.4) and uninduced (pH 7.4) samples before calculating changes in caspase 3 activity. The same was done for the detection of caspase 8. As a control, N38 cells were cultured with pH 7.4 DMEM and incubated for 4 days, apoptosis was then induced using 10 μM/ml etoposide and lysed according to the above protocol and used a control for all subsequent caspase 3 detection. All assays were performed with 4 replications.

caspase 8 = test: Caspase 8 colorimetric assay; conditions: pH 7.4; apoptotic control
Procedure: as §1

## COc1cc([C@@H]2c3cc4c(cc3[C@@H](O[C@@H]3O[C@@H]5CO[C@@H](C)O[C@H]5[C@H](O)[C@H]3O)[C@H]3COC(=O)[C@H]23)OCO4)cc(OC)c1O [Etoposide, etoposide, reference compound]
Cleaved caspase 3
  caspase 3 cleavage product (17/19 kDa) on western blot: clearly visible
Caspase 3
  increase in caspase-3 relative to vehicle-treated cells: 3.5 fold
Caspase 8
  increase in caspase 8 relative to vehicle-treated cells: greater than 3 fold

From patent publication US20080015147A1, “Method for inhibiting neuronal cell death” (priority 2006, published 2008)
